Reference: US20220356525A1, “METHODS OF DETERMINING WHETHER PATIENTS SUFFERING FROM ACUTE MYELOID LEUKEMIA WILL ACHIEVE A RESPONSE TO AN MYC-TARGETING THERAPY” (INSERM (INSTITUT NATIONAL DE LA SANTÉ ET DE LA RECHERCHE …, priority 2019, published 2022)

Assays:
U937 cell colonies = assay: Colony formation assay with OTX015 at reduced folic acid; format: cell-based, human; settings: 125-fold decrease in folic acid (1 mg/L to 0.008 mg/L)
Protocol: (§1) To investigate further the relationship between folic acid starvation and increased BET inhibitor resistance, we compiled a panel of AML cell lines harboring diverse genetic alterations. […] The effect of folic acid removal was also evaluated in cell lines treated either with a second BET inhibitor, JQ1, or with THZ-1, a covalent inhibitor of CDK7, another key factor in transcriptional elongation at super-enhancer regions and a strong inhibitor of MYC expression (data not shown). […] Therefore, we studied selective suppression of BRD4 by short hairpin RNA (shRNA) in two AML cell lines.

[1] = tested on: CRISPR/Cas9-edited KG1a clones; assay: OTX015 sensitivity and colony formation of CRISPR/Cas9-edited KG1a clones with MTHFR variants; format: cell-based, human
Excerpt: Error bars represent mean±SD. Experiment performed at least two independent times.
(§2) Error bars represent mean±SD.
Additional information is provided in the supplementary material and methods section.
Finally, we engineered a tractable MLL-AF9-driven mouse model of AML in which Mtfhr genotype status was either homozygous wild-type, heterozygous or homozygous knockout.

[2] = tested on: MLL-AF9-transformed Mthfr knockout primary murine cells; assay: OTX015 resistance after Spi1 knockdown in Mthfr knockout cells; format: cell-based
IMS-M2 and U937 cells [3] = assay: OTX015 resistance after SPI1 knockdown with folate withdrawal or MTHFR suppression; format: cell-based, human; settings: SPI1 depletion; folate cycle disturbed or MTHFR suppressed
Excerpt: To explore functionally whether SPI1 transcriptional program activation induced by folate cycle disruption promotes resistance to BRD4 inhibition, we knocked down SPI1 in IMS-M2 and U937 cells before folate withdrawal or MTHFR suppression (FIGS. 5F and 5G).

[4] = tested on: AML cell lines: KG1a, OCI-AML2, and U937; assay: OTX015 response and colony number after MTHFR-directed shRNAs in AML cell lines; format: cell-based, human
Excerpt: Dietary folic acid undergoes several conversion steps into intermediate metabolites before generation of 5,10-methylene-THF (5,10-CH2 THF). 5,10-CH2 THF is then either reduced in the folate cycle or oxidized in the formate-producing tetrahydrofolate salvage cycle, depending on cellular needs. Despite the fact that folic acid can ultimately be processed through these two interconnected pathways, we observed in our previous ssGSEA analyses that active MYC gene signatures were highly correlated with activation of tetrahydrofolate salvage cycle, but not with folate cycle-related gene sets (data not shown). […] Five central enzymes control the multi-step conversion of dietary folate into 5,10-methylene-THF (5,10-CH2 THF) before its reduction to 5-methyl-THF (5-CH3 THF) and recycling to THF. […] Finally, we abrogated Mthfr expression in primary murine MLL-AF9-driven AML cells using two Mthfr-directed shRNAs before treatment of engrafted mice with JQ1 (data not shown).

U937 cells = assay: OTX015 sensitivity after EED, EHMT1, SETDB1 hairpins; format: cell-based, human; settings: hairpins reducing EED, EHMT1 and SETB1 protein
AML cells = assay: Apoptosis in response to OTX015 upon folic acid withdrawal; format: cell-based, human
Protocol: as §1

[5] = tested on: MLL-translocated primary patient samples with AML; assay: OTX015 sensitivity of primary AML patient samples; format: cell-based, human
Protocol: as §2, §1
Previous studies have extensively characterized two common MTHFR genetic variants, C677T and A1298C, encoding MTHFR enzyme variants with reduced activity, resulting in hyperhomocysteinemia in human carriers. In particular, the homozygous variant 677 TT and 1298 CC genotypes are present in ˜10% of Caucasians and display only 30% and 60% of the homozygous wild-type 677 CC and 1298 AA enzyme activities, respectively (16, 17). […] Five KG1a clones either 1) wild-type 677 CC and 1298 AA, 2) heterozygous 677 CT or 1298 AC, or 3) homozygous 677 TT or 1298 CC, were selected and genotyped via allelic discrimination technique (FIG. 1A). […] Finally, we engineered a tractable MLL-AF9-driven mouse model of AML in which Mtfhr genotype status was either homozygous wild-type, heterozygous or homozygous knockout.

[6] = tested on: MYC transcriptional program; assay: RNA sequencing and gene set enrichment after OTX015 for 24 hours; format: cell-based, human; settings: IMS-M2 and U937; irrespective of folate status; FDR<0.25
[7] = tested on: AML cell lines (KG1a, IMS-M2, and U937); assay: AML cell line sensitivity to BET/CDK7 inhibitors in standard versus nutrient-deprived (folic acid-starved) media; format: cell-based, human; settings: for AML cell line sensitivity: folic acid withdrawal
Excerpt: BET proteins interact with acetylated histones in active regulatory domains (promoters and enhancers) and promote RNA PolII activity. Despite the general nature of this mechanism, BET inhibitors have shown selective effects on gene expression through suppression of […] and MYC-related transcriptional programs (8, 11, 12). Two cohorts of AML patients (TCGA-LAML, n=198 and GSE14468, n=526) were queried with multiple gene sets related to MYC transcriptional programs as well as vitamin, amino acid, and nucleotide metabolism using single sample Gene Set Enrichment Analysis (ssGSEA). Correlation between gene sets was queried across all patients from each cohort to pinpoint potential crosstalk between active MYC programs and specific metabolic pathways (data not shown).
as §1

IMS-M2 AML cells = assay: OTX015 sensitivity after shRNA knockdown of folate cycle enzymes; format: cell-based, human; settings: for increase of IC50 of OTX015: average
[8] = tested on: KG1a, U937 and IMS-M2 cells; assay: OTX015 sensitivity with SAH supplementation; format: cell-based, human
Excerpt: We next used metabolism profiling to characterize the effect of folate pathway alteration on global cell metabolism in U937 cells. […] ShRNA-mediated MTHFR depletion induced a similar increase in SAH levels as that observed upon folate withdrawal in AML cell lines U937 and IMS-M2 (data not shown).

MLL-AF9-driven AML cells = assay: MLL-AF9-driven AML mouse models treated with JQ1; format: in vivo, mice
Protocol: (E) MLL-AF9-transformed GFP-positive granulomonocytic progenitors (Sca-1^−/c-KIT^+/CD16/32^+/CD34^+/MPO^+) from homozygous wild-type […], or heterozygous (+/−) and homozygous (−/−) Mthfr knockout mice transplanted into sublethally-irradiated recipient mice before treatment with vehicle or 50 mg/kg JQ1 for 7 days. Proportion of GFP-positive MLL-AF9 leukemic cells in bone marrow from five mice per group. p-value by Mann-Whitney test. n.s, nonsignificant (p>0.05). Error bars represent mean±SD.
The French National Committee on Animal Care reviewed and approved all mouse experiments. Sample size was influenced by historical penetrance and consistency of MLL-AF9-driven in vivo models. For the Mthfr knockout AML mouse model, BALB/cJ mice were purchased from Charles River Laboratories. Each recipient mouse was transplanted with transduced Scal^−/c-Kit^+ myeloid progenitors sorted from the total bone marrow of three donor mice. Approximatively two months post-transplantation, sick mice were euthanized and bone marrow harvested before flow-based sorting of MLL-AF9-positive granulo-monocytic bone marrow progenitor population (GFP^+/Sca-1^−/c-Kit^+/Cd16/32^+/Cd34^+) and PCR-based confirmation of Mthfr knockout status. 0.2×10^6 MLL-AF9-positive Mthfr^+/+, Mthfr^+/−, and Mthfr^−/− cells were then reinjected into sublethally-irradiated secondary recipient mice treated daily by intraperitoneal injection with 50 mg/kg JQ1 (10% DMSO+90% G5W).
For folate starvation experiments, 5-week old male C57BL/6J mice were given regular or folate-deficient casein-reconstituted diet (Safe-Diets) for 4 weeks before sublethal irradiation (350cGy) and injection with 0.2×10^6 MLL-AF9-positive L-GMP cells before treatment with 35 mg/kg or 50 mg/kg JQ1 (10% DMSO+90% G5W) for 7 days. For Mthfr knockdown experiments, MLL-AF9-positive L-GMP cells were infected with a control or two Mthfr-directed shRNAs cloned into an MSCV-miRE-SV40-eBFP vector modified from the MSCV-miRE_shBRD9_561-SV40-GFP vector (Addgene, #75139) by substitution of the GFP cassette with an eBFP fluorescent marker. 0.2×10^6 infected cells were injected into sublethally-irradiated 5-week old C57BL/6J recipient mice. Additional information is provided in the supplementary material and methods section.

BRD4 = BRD4 (Homo sapiens, UniProt O60885); settings: previous studies; cited from earlier work
OCI-AML2 cells = assay: Pooled CRISPR/Cas9 epigenetic screen with JQ1; format: cell-based, human
Protocol: OCI-AML2 cells were seeded into six-well plates at a density of 3×10^6 cells per well and transduced at MOI 0.2. […] 24 hours post-transduction, cells were replated into puromycin-containing media. A sample was collected at 48 hours post-puromycin to confirm library coverage in the transduced population. Transduced cells were expanded in puromycin for 10 days before drug, when the transduced population was split into vehicle (DMSO) and JQ1 conditions and maintained for two weeks. Deep sequencing was performed by Hudson Alpha Institute for Biotechnology on an Illumina Nextseq platform (75 bp, single-ended) to identify differences in library composition. Additional information is provided in the supplementary material and methods section.

CDK7 = CDK7 (Homo sapiens, UniProt P50613); settings: Table 1, Kwiatkowski et al. (2014); cited from earlier work
Sequence of CDK7 (P50613 whole entry): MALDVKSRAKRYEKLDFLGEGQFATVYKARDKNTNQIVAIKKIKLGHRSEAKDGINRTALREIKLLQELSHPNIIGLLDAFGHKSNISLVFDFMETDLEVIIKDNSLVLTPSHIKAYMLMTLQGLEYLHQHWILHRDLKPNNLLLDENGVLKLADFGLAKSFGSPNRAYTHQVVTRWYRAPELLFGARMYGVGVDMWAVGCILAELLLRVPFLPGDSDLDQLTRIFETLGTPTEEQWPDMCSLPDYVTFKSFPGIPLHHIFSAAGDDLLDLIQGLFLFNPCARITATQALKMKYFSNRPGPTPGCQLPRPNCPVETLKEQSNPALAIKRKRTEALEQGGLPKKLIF
Sequence of CDK7 (P51946 whole entry partner): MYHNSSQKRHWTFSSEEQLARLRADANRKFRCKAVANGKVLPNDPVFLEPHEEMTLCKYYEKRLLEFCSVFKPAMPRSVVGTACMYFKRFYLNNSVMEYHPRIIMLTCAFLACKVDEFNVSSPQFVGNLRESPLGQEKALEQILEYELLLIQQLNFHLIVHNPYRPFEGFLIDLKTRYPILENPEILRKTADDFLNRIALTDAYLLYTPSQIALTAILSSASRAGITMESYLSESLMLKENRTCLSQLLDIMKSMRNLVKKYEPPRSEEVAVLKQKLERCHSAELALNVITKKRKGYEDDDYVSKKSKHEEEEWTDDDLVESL

IMS-M2 and U937 cells [9] = settings: 50 μM 5-CH3 THF; MTHFR-directed shRNAs
[10] = folic acid-starved media versus standard media, panel of AML cell lines

SMILES: Cc1sc2c(c1C)C(c1ccc(Cl)cc1)=N[C@@H](CC(=O)Nc1ccc(O)cc1)c1nnc(C)n1-2 [OTX015]
- number of colonies in presence of OTX015 (U937 cell colonies): significantly increased the number of U937 cell colonies
- number of colonies upon OTX015 treatment ([1]; 677 TT and 1298 CC homozygous versus wild-type clones, 1 μM OTX015): substantially higher
- resistance to OTX015 [2]: abrogated resistance to OTX015
- OTX015 resistance (IMS-M2 and U937 cells [3]): significantly reduced OTX015 resistance
- response to increasing doses of OTX015 ([4]; MTHFR suppression): substantially weakened the response
- colony number upon OTX015 treatment ([4]; MTHFR-depleted versus shCT-infected cells): significant increase in colony number
- OTX015 sensitivity (U937 cells): markedly alleviated OTX015 sensitivity
- apoptosis in response to OTX015 (AML cells): decrease in apoptosis
- response to OTX015 (IC90, 5 days) ([5]; 16 samples, homozygous and compound heterozygous MTHFR genotype versus wild-type and heterozygous): responded significantly less
- IC50 ([5]; folic acid withdrawal): markedly increased
- enrichment of MYC gene sets in genes suppressed by OTX015 [6]: highly enriched
- resistance to OTX015 ([7]; folic acid starvation, KG1a, IMS-M2, U937): consistently enhanced resistance
- area under curve (AUC) [7, 10]: significantly increased
- half-maximal inhibitory concentration (IC50) [7, 10]: significantly increased
- resistance to OTX015 ([7]; phenylalanine and histidine starvation): increased resistance to OTX015 in a subset of AML cell lines
- increase of IC50 of OTX015 (IMS-M2 AML cells; hairpins targeting DHFR and DHFR2): 3 fold
- increase of IC50 of OTX015 (IMS-M2 AML cells; hairpins targeting MTHFR): 7 fold
- response to OTX015 (IMS-M2 AML cells; hairpins targeting SHMT1 and MTR): did not significantly alter response

SMILES: Nc1ncnc2c1ncn2[C@@H]1O[C@H](CSCC[C@H](N)C(=O)O)[C@@H](O)[C@H]1O [SAH, S-adenosylhomocysteine]
- cytoprotective effect of SAH against OTX015 ([8]; methionine depleted 300-fold, IMS-M2 cells): enhanced the cytoprotective effect of SAH against OTX015
- resistance to OTX015 with SAH ([8]; methionine depleted, U937 and KG1a cells): even greater resistance to OTX015 than folate restriction alone

SMILES: Cc1sc2c(c1C)C(c1ccc(Cl)cc1)=N[C@@H](CC(=O)OC(C)(C)C)c1nnc(C)n1-2 [JQ1, tert-butyl 2-[(9S)-7-(4-chlorophenyl)-4,5,13-trimethyl-3-thia-1,8,11,12-tetrazatricyclo[8.3.0.02,6]trideca-2(6),4,7,10,12-pentaen-9-yl]acetate]
- leukemic burden (MLL-AF9-driven AML cells; animals transplanted with Mthfr-depleted (shRNA) blasts, JQ1 treatment): not significantly decreased
- sensitivity of leukemic burden to JQ1 (MLL-AF9-driven AML cells; control shRNA counterparts): striking sensitivity
- sensitivity to JQ1 (GFP-positive MLL-AF9 leukemic cells in bone marrow) (MLL-AF9-driven AML cells; loss of a single copy of Mthfr, 50 mg/kg JQ1 for 7 days): sufficient to attenuate sensitivity
- anti-leukemic activity (MLL-AF9-driven AML cells; mice fed no folate diet versus regular diet): markedly attenuated
- overall survival after JQ1 treatment (MLL-AF9-driven AML cells; mice injected with Mthfr-depleted cells versus control leukemic cells): significantly shorter
- inhibition of BRD4 (BRD4): potently inhibited
- effect of gene knockout on cells treated with JQ1 (OCI-AML2 cells; knockout of EED, EIMT1 and SETDB1, 2 weeks): rescued cells from JQ1
- effect of gene knockout on cells treated with JQ1 (OCI-AML2 cells; knockout of KDMIA, JMJDIC and KDM3B): enhanced cell sensitivity to JQ1
- AML cell line sensitivity [7]: significantly dampened

SMILES: CC[C@H](CO)Nc1nc(NCc2ccccc2)c2ncn(C(C)C)c2n1 [Roscovitine]
- inhibitory activity toward CDK7 relative to other CDKs (CDK7): lower inhibitory activity toward CDK7 than toward at least one other CDK

SMILES: CN(C)C/C=C/C(=O)Nc1ccc(C(=O)Nc2cccc(Nc3ncc(Cl)c(-c4c[nH]c5ccccc45)n3)c2)cc1 [THZ-1]
- AML cell line sensitivity [7]: significantly dampened

SMILES: CN1CC[C@H](c2c(O)cc(O)c3c(=O)cc(-c4ccccc4Cl)oc23)[C@H](O)C1 [flavopiridol]
- inhibitory activity toward CDK7 relative to other CDKs (CDK7): lower inhibitory activity toward CDK7 than toward at least one other CDK

SMILES: CC(C)CC(=O)Nc1[nH]nc2c1CN(C(=O)C1CCN(C)CC1)C2(C)C [PHA-793887]
- inhibitory activity toward CDK7 relative to other CDKs (CDK7): lower inhibitory activity toward CDK7 than toward at least one other CDK

SMILES: CN1c2c(nc(N)[nH]c2=O)NCC1CNc1ccc(C(=O)N[C@@H](CCC(=O)O)C(=O)O)cc1 (stereo partly drawn) [5-CH3 THF, 5-methyltetrahydrofolate]
- effect on response to OTX015 (fold change of IC50, 5 days) ([1]; 50 μM 5-CH3 THF, 677 TT or 1298 CC clones versus wild-type): substantially enhanced response to OTX015
- effect on response to OTX015 (IC90, 5 days) ([5]; 50 μM 5-CH3 THF, three patient samples with altered MTHFR genotype): sensitized to OTX015
- effect on cytotoxicity of OTX015 (fold change of IC50, 5 days) (IMS-M2 and U937 cells [9]): restored a cytotoxic effect of OTX015
